This assay has as its target T1, α-amylase (Sus scrofa, UniProt P00690).
T1 construct: gene AMY2
T1 sequence (P00690 16-511): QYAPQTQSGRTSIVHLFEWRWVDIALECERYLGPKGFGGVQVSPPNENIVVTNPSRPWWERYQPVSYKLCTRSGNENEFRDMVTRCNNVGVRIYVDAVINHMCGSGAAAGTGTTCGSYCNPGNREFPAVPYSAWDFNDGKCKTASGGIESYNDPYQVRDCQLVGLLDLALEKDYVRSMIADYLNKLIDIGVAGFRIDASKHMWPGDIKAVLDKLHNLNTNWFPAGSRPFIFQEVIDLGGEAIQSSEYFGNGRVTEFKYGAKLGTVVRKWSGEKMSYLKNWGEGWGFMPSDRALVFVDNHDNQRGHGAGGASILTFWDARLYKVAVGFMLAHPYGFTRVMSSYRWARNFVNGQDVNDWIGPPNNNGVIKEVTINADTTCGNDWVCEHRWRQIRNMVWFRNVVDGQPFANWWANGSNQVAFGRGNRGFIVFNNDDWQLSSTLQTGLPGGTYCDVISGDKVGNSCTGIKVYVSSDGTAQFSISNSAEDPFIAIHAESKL
In words: α-amylase inhibition assay of isolated compound; also captured by centrifugal ultrafiltration LC-MS with active but not denatured enzyme. The assay is classed as biochemical.

pIC50: −log10 of the molar value. Where two headings read alike, the source gives them in different places.

With `C[C@@H]1O[C@@H](Oc2c(-c3ccc(O)c(O)c3)oc3cc(O)cc(O)c3c2=O)[C@H](O)[C@H](O)[C@H]1O` [compound 1, quercetin-3-O-rhamnoside], the pIC50 was 4.54.
Consider `O=C(O)c1ccc(O)c(O)c1` [compound 2, protocatechuic acid], for which the negative logarithm of the IC50 (pIC50) (read-out: IC50) was 4.90.

The values above are taken from article PMC6274455, “Isolation of α-Amylase Inhibitors from Kadsura longipedunculata Using a High-Speed Counter-Current Chromatography Target Guided by Centrifugal Ultrafiltration with LC-MS” (Molecules, 2016).
